# Measured values from PubChem BioAssay AID2060897 (Molecular Pharmacology Branch, DTP, NCI, 2025).
# System: 966289-007-R4-J1-PDC complex spheroid viability
# Test: Anticancer human tumor 966289-007-R4-J1-PDC patient-derived pancreatic adenocarcinoma cell line growth inhibition [RAS]
# Conditions: for viability, T/C: stronger effect = lower value
# Procedure, shortened: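 Tumour cells grown as complex spheroids with HUVEC endothelial cells and mesenchymal stem cells, treated with RAS pathway inhibitor combinations. Each agent spans half-log steps from near clinical Cmax, or 10 microM where Cmax is unknown.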
# 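Further: spheroids exposed to agents for one week before readout.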
# 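Wherever viability, T/C is given: percent viability relative to DMSO vehicle control wells as 100%.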
compound,measurement,setting,value
CCc1c2c(nc3ccc(O)cc13)-c1cc3c(c(=O)n1C2)COC(=O)[C@]3(O)CC + CCn1c(-c2cccnc2C(C)OC)c2c3cc(ccc31)N1CCOC(CC(NC(=O)C(C(C)C)N(C)C(=O)C3(F)CCN(C(=O)C#CC(C)(C)N(C)C)CC3)C(=O)N3CCCC(N3)C(=O)OCC(C)(C)C2)C1,IC50,"curve of first compound, second compound 0.000949 µM",1.76 nM
same,IC50,"curve of first compound, second compound 0.003 µM",1.73 nM
same,IC50,"curve of first compound, second compound 0.00949 µM",1.62 nM
same,IC50,"curve of first compound, second compound 0.03 µM",1.18 nM
same,IC50,"curve of first compound, second compound 0.0949 µM",0.96 nM
same,IC50,"curve of first compound, second compound 0.3 µM",< 0.949 nM
same,"viability, T/C","second compound 0.000949 µM, first compound 0.000949 µM",103%
same,"viability, T/C","second compound 0.000949 µM, first compound 0.003 µM",4.09%
same,"viability, T/C","second compound 0.000949 µM, first compound 0.00949 µM",0.96%
same,"viability, T/C","second compound 0.000949 µM, first compound 0.03 µM",0.65%
same,"viability, T/C","second compound 0.000949 µM, first compound 0.0949 µM",0.49%
same,"viability, T/C","second compound 0.000949 µM, first compound 0.3 µM",0.69%
same,"viability, T/C","second compound 0.003 µM, first compound 0.000949 µM",99.8%
same,"viability, T/C","second compound 0.003 µM, first compound 0.003 µM",4.15%
same,"viability, T/C","second compound 0.003 µM, first compound 0.00949 µM",0.79%
same,"viability, T/C","second compound 0.003 µM, first compound 0.03 µM",0.63%
same,"viability, T/C","second compound 0.003 µM, first compound 0.0949 µM",0.64%
same,"viability, T/C","second compound 0.003 µM, first compound 0.3 µM",0.67%
same,"viability, T/C","second compound 0.00949 µM, first compound 0.000949 µM",89.8%
same,"viability, T/C","second compound 0.00949 µM, first compound 0.003 µM",4.69%
same,"viability, T/C","second compound 0.00949 µM, first compound 0.00949 µM",1.12%
same,"viability, T/C","second compound 0.00949 µM, first compound 0.03 µM",0.52%
same,"viability, T/C","second compound 0.00949 µM, first compound 0.0949 µM",0.51%
same,"viability, T/C","second compound 0.00949 µM, first compound 0.3 µM",0.56%
same,"viability, T/C","second compound 0.03 µM, first compound 0.000949 µM",60.8%
same,"viability, T/C","second compound 0.03 µM, first compound 0.003 µM",3.34%
same,"viability, T/C","second compound 0.03 µM, first compound 0.00949 µM",1.17%
same,"viability, T/C","second compound 0.03 µM, first compound 0.03 µM",0.76%
same,"viability, T/C","second compound 0.03 µM, first compound 0.0949 µM",0.58%
same,"viability, T/C","second compound 0.03 µM, first compound 0.3 µM",0.79%
same,"viability, T/C","second compound 0.0949 µM, first compound 0.000949 µM",50.5%
same,"viability, T/C","second compound 0.0949 µM, first compound 0.003 µM",2.92%
same,"viability, T/C","second compound 0.0949 µM, first compound 0.00949 µM",0.55%
same,"viability, T/C","second compound 0.0949 µM, first compound 0.03 µM",0.56%
same,"viability, T/C","second compound 0.0949 µM, first compound 0.0949 µM",0.56%
same,"viability, T/C","second compound 0.0949 µM, first compound 0.3 µM",0.53%
same,"viability, T/C","second compound 0.3 µM, first compound 0.000949 µM",18.4%
same,"viability, T/C","second compound 0.3 µM, first compound 0.003 µM",1.07%
same,"viability, T/C","second compound 0.3 µM, first compound 0.00949 µM",0.76%
same,"viability, T/C","second compound 0.3 µM, first compound 0.03 µM",0.59%
same,"viability, T/C","second compound 0.3 µM, first compound 0.0949 µM",0.68%
same,"viability, T/C","second compound 0.3 µM, first compound 0.3 µM",0.5%
C=CC(=O)Nc1cc(Nc2nccc(-c3cn(C)c4ccccc34)n2)c(OC)cc1N(C)CCN(C)C,"viability, T/C",compound 0.0316 µM,100% [middle of 4 runs]
same,IC50,curve of compound,> 1000 nM
Cc1nc(N2CCC3(CC2)COC(C)C3N)c(CO)nc1Sc1ccnc(N)c1Cl (stereo unspecified) + C#Cc1c(F)ccc2cc(O)cc(-c3ncc4c(N5CC6CCC(C5)N6)nc(OCC56CCCN5CC(F)C6)nc4c3F)c12,IC50,"curve of first compound, second compound 0.0316 µM",> 10000 nM
same,IC50,"curve of first compound, second compound 0.1 µM",> 10000 nM
same,IC50,"curve of first compound, second compound 0.316 µM",> 10000 nM
same,IC50,"curve of first compound, second compound 1 µM",> 10000 nM
same,IC50,"curve of first compound, second compound 3.16 µM",> 10000 nM
same,IC50,"curve of first compound, second compound 10 µM",> 10000 nM
same,"viability, T/C","second compound 0.0316 µM, first compound 0.0316 µM",107%
same,"viability, T/C","second compound 0.0316 µM, first compound 0.1 µM",92.5%
same,"viability, T/C","second compound 0.0316 µM, first compound 0.316 µM",111%
same,"viability, T/C","second compound 0.0316 µM, first compound 1 µM",80.5%
same,"viability, T/C","second compound 0.0316 µM, first compound 3.16 µM",102%
same,"viability, T/C","second compound 0.0316 µM, first compound 10 µM",92%
same,"viability, T/C","second compound 0.1 µM, first compound 0.0316 µM",107%
same,"viability, T/C","second compound 0.1 µM, first compound 0.1 µM",94.7%
same,"viability, T/C","second compound 0.1 µM, first compound 0.316 µM",103%
same,"viability, T/C","second compound 0.1 µM, first compound 1 µM",92.6%
same,"viability, T/C","second compound 0.1 µM, first compound 3.16 µM",95.1%
same,"viability, T/C","second compound 0.1 µM, first compound 10 µM",90.9%
same,"viability, T/C","second compound 0.316 µM, first compound 0.0316 µM",91%
same,"viability, T/C","second compound 0.316 µM, first compound 0.1 µM",114%
same,"viability, T/C","second compound 0.316 µM, first compound 0.316 µM",115%
same,"viability, T/C","second compound 0.316 µM, first compound 1 µM",115%
same,"viability, T/C","second compound 0.316 µM, first compound 3.16 µM",93.5%
same,"viability, T/C","second compound 0.316 µM, first compound 10 µM",91.5%
same,"viability, T/C","second compound 1 µM, first compound 0.0316 µM",93.1%
same,"viability, T/C","second compound 1 µM, first compound 0.1 µM",112%
same,"viability, T/C","second compound 1 µM, first compound 0.316 µM",113%
same,"viability, T/C","second compound 1 µM, first compound 1 µM",107%
same,"viability, T/C","second compound 1 µM, first compound 3.16 µM",97.8%
same,"viability, T/C","second compound 1 µM, first compound 10 µM",87.3%
same,"viability, T/C","second compound 3.16 µM, first compound 0.0316 µM",104%
same,"viability, T/C","second compound 3.16 µM, first compound 0.1 µM",104%
same,"viability, T/C","second compound 3.16 µM, first compound 0.316 µM",113%
same,"viability, T/C","second compound 3.16 µM, first compound 1 µM",88.8%
same,"viability, T/C","second compound 3.16 µM, first compound 3.16 µM",88.2%
same,"viability, T/C","second compound 3.16 µM, first compound 10 µM",98%
same,"viability, T/C","second compound 10 µM, first compound 0.0316 µM",91.8%
same,"viability, T/C","second compound 10 µM, first compound 0.1 µM",97.1%
same,"viability, T/C","second compound 10 µM, first compound 0.316 µM",100%
same,"viability, T/C","second compound 10 µM, first compound 1 µM",89.8%
same,"viability, T/C","second compound 10 µM, first compound 3.16 µM",95.2%
same,"viability, T/C","second compound 10 µM, first compound 10 µM",85.5%
